The subject of the assay is BDF1 mice, B16 melanoma ip, median survival T/C. The assay can be described thus: NCI In Vivo Anticancer Drug Screen. Data for tumor model B16 Melanoma (intraperitoneal) in B6D2F1 (BDF1) mice. The settings on record: endpoint: median survival time, higher = longer survival. An outline of the steps:
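Compounds were tested in mice carrying transplantable tumors. Survival or tumor size was recorded, and each value is the treated-group measurement (T) divided by that of the vehicle-treated control group (C).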

The mark [1] stands for this setting: dose: 100.0 mg/kg/injection, schedule: Q01DX009 (ip), vehicle: saline with Tween-80.
The mark [2] stands for this setting: dose: 200.0 mg/kg/injection, schedule: Q01DX009 (ip), vehicle: saline with Tween-80.
The mark [3] stands for this setting: dose: 50.0 mg/kg/injection, schedule: Q01DX009 (ip), vehicle: saline with Tween-80.

Among the data in PubChem BioAssay AID192 (DTP/NCI, 2004) are T/C values, retold here.

Where “and” joins values, the source holds several entries; their conditions need not be identical. Equal entries are not always repeated. Inconclusive results and toxic doses are left out.

As to `C=C1CCN(c2ccc(Br)cc2)C1=O`, the T/C reads like this: (dose: 4.0 mg/kg/injection, schedule: Q01DX009 (ip), vehicle: saline + alcohol) 95 % of control; (dose: 8.0 mg/kg/injection, schedule: Q01DX009 (ip), vehicle: saline + alcohol) 101 % of control; (dose: 16.0 mg/kg/injection, schedule: Q01DX009 (ip), vehicle: saline + alcohol) 109 % of control; (dose: 32.0 mg/kg/injection, schedule: Q01DX009 (ip), vehicle: saline + alcohol) 95 % of control; (dose: 64.0 mg/kg/injection, schedule: Q01DX009 (ip), vehicle: saline + alcohol) 101 % of control.
Consider `CC(N)C(=O)NC(CO)C(=O)O` (configuration not stated), for which the T/C under setting [1] is 109 % of control; the T/C under setting [2] was 97 % of control; the T/C (dose: 400.0 mg/kg/injection, schedule: Q01DX009 (ip), vehicle: saline with Tween-80) was 97 % of control.
For the molecule `COc1cccc(/C=N/NC(=O)c2ccccc2N2CCCC2)c1O`, the T/C by setting is: (dose: 12.5 mg/kg/injection, schedule: Q01DX009 (ip), vehicle: olive oil, sesame oil, peanut oil) 89 % of control; (dose: 50.0 mg/kg/injection, schedule: Q01DX009 (ip), vehicle: olive oil, sesame oil, peanut oil) 89 % of control; (dose: 100.0 mg/kg/injection, schedule: Q01DX009 (ip), vehicle: olive oil, sesame oil, peanut oil) 87 % of control; (dose: 200.0 mg/kg/injection, schedule: Q01DX009 (ip), vehicle: olive oil, sesame oil, peanut oil) 86 % of control; (dose: 400.0 mg/kg/injection, schedule: Q01DX009 (ip), vehicle: olive oil, sesame oil, peanut oil) 96 % of control.
On to `CC(C)NC(=O)OCc1c(COC(=O)NC(C)C)c(-c2ccc(Cl)c(Cl)c2)n2c1CCC2`, for which the T/C was 102 % of control (dose: 1.56 mg/kg/injection, schedule: Q01DX009 (ip), vehicle: distilled water + Tween-80); 123 % of control (dose: 2.34 mg/kg/injection, schedule: Q01DX009 (ip), vehicle: other); 118 % of control (dose: 3.11 mg/kg/injection, schedule: Q01DX009 (ip), vehicle: distilled water + Tween-80); 120 % of control (dose: 3.12 mg/kg/injection, schedule: Q01DX009 (ip), vehicle: distilled water + Tween-80); 183 % of control (dose: 4.69 mg/kg/injection, schedule: Q01DX009 (ip), vehicle: saline with Tween-80); 169 % of control (dose: 9.38 mg/kg/injection, schedule: Q01DX009 (ip), vehicle: other). For the same molecule, the T/C was 173 % of control (dose: 9.38 mg/kg/injection, schedule: Q01DX009 (ip), vehicle: saline with Tween-80); 168 % of control (dose: 12.5 mg/kg/injection, schedule: Q01DX009 (ip), vehicle: distilled water + Tween-80); 179 % of control (dose: 14.4 mg/kg/injection, schedule: Q01DX009 (ip), vehicle: distilled water + Tween-80); 197 % of control (dose: 18.75 mg/kg/injection, schedule: Q01DX009 (ip), vehicle: other); 239 % of control (dose: 18.75 mg/kg/injection, schedule: Q01DX009 (ip), vehicle: saline with Tween-80); 200 % of control (dose: 25.0 mg/kg/injection, schedule: Q01DX009 (ip), vehicle: distilled water + Tween-80). Further, the T/C by setting is: (dose: 37.5 mg/kg/injection, schedule: Q01DX009 (ip), vehicle: saline with Tween-80) 245 % of control; (dose: 40.0 mg/kg/injection, schedule: Q01DX009 (ip), vehicle: distilled water + Tween-80) 103 % of control; (dose: 50.0 mg/kg/injection, schedule: Q01DX009 (ip), vehicle: distilled water + Tween-80) 100 % of control; (dose: 75.0 mg/kg/injection, schedule: Q01DX009 (ip), vehicle: saline with Tween-80) 215 % of control.
Turning to `COc1cc2c(c(OC)c1OC)-c1ccc(OC)c(=O)cc1[C@@H](NC(C)=O)CC2`, the T/C was 123 % of control (dose: 0.12 mg/kg/injection, schedule: Q01DX009 (ip), vehicle: saline); 120 % of control (dose: 0.13 mg/kg/injection, schedule: Q01DX009 (ip), vehicle: saline); 179 % of control (dose: 0.25 mg/kg/injection, schedule: Q01DX009 (ip), vehicle: water); 152 % of control (dose: 0.4 mg/kg/injection, schedule: Q01DX009 (ip), vehicle: saline); 113 % of control (dose: 0.5 mg/kg/injection, schedule: Q01DX009 (ip), vehicle: saline); 150 % of control and 154 % of control (dose: 0.5 mg/kg/injection, schedule: Q01DX009 (ip), vehicle: water). For the same molecule, the T/C was 166 % of control (dose: 1.0 mg/kg/injection, schedule: Q01DX009 (ip), vehicle: water); 121 % of control (dose: 63.0 micrograms/kg/injection, schedule: Q01DX009 (ip), vehicle: saline); 150 % of control (dose: 250.0 micrograms/kg/injection, schedule: Q01DX009 (ip), vehicle: saline); 151 % of control (dose: 500.0 micrograms/kg/injection, schedule: Q01DX009 (ip), vehicle: saline); 155 % of control (dose: 1000.0 micrograms/kg/injection, schedule: Q01DX009 (ip), vehicle: saline).
As for `CSC(=C[N+](=O)[O-])SC`, the T/C is 108 % of control (dose: 1.56 mg/kg/injection, schedule: Q01DX009 (ip), vehicle: water); 91 % of control (dose: 3.13 mg/kg/injection, schedule: Q01DX009 (ip), vehicle: water); 95 % of control (dose: 6.25 mg/kg/injection, schedule: Q01DX009 (ip), vehicle: water); 99 % of control (dose: 12.5 mg/kg/injection, schedule: Q01DX009 (ip), vehicle: water); 89 % of control (dose: 25.0 mg/kg/injection, schedule: Q01DX009 (ip), vehicle: water).
As to `Cc1ccc(S(=O)(=O)NC(CSCc2ccccc2)C(=O)O)cc1` (configuration not stated), the T/C was 92 % of control under setting [3] and 86 % of control under setting [1].
With `Cc1cccc(C)c1N1C(=O)CCC1=O`, the T/C (dose: 100.0 mg/kg/injection, schedule: Q01DX009 (ip), vehicle: Klucel (hydroxypropylcellulose) (HPC)) was 101 % of control; the T/C (dose: 200.0 mg/kg/injection, schedule: Q01DX009 (ip), vehicle: Klucel (hydroxypropylcellulose) (HPC)) is 95 % of control; the T/C (dose: 400.0 mg/kg/injection, schedule: Q01DX009 (ip), vehicle: Klucel (hydroxypropylcellulose) (HPC)) was 102 % of control.
With `CC(C)(C)OC(=O)NC(CCCCNC(=O)OCc1ccccc1)C(=O)O` (configuration not stated), the T/C runs as follows: under setting [3], 107 % of control; under setting [1], 90 % of control.
Regarding `Cc1ccc(S(=O)(=O)OC2CCN(C)CC2)cc1`, the T/C runs as follows: (dose: 3.0 mg/kg/injection, schedule: Q04DX003 (ip), vehicle: Klucel (hydroxypropylcellulose) (HPC)) 90 % of control; (dose: 6.0 mg/kg/injection, schedule: Q04DX003 (ip), vehicle: Klucel (hydroxypropylcellulose) (HPC)) 86 % of control; (dose: 6.25 mg/kg/injection, schedule: Q01DX009 (ip), vehicle: saline) 100 % of control; (dose: 6.25 mg/kg/injection, schedule: Q04DX003 (ip), vehicle: saline) 94 % of control; (dose: 12.5 mg/kg/injection, schedule: Q01DX009 (ip), vehicle: saline) 100 % of control; (dose: 12.5 mg/kg/injection, schedule: Q04DX003 (ip), vehicle: saline) 97 % of control. In addition, the T/C is 100 % of control (dose: 25.0 mg/kg/injection, schedule: Q01DX009 (ip), vehicle: saline) and 94 % of control (dose: 25.0 mg/kg/injection, schedule: Q04DX003 (ip), vehicle: saline).
As to `c1ccc2c(c1)C1=NCCN1c1ccccc1-2`, the T/C (dose: 12.0 mg/kg/injection, schedule: Q01DX009 (ip), vehicle: saline with Tween-80) is 92 % of control; the T/C (dose: 18.0 mg/kg/injection, schedule: Q01DX009 (ip), vehicle: saline with Tween-80) was 94 % of control; the T/C (dose: 26.0 mg/kg/injection, schedule: Q01DX009 (ip), vehicle: saline with Tween-80) was 102 % of control.
Turning to `O=C(O)C(=O)O.O=C([O-])C(=O)O.O=C([O-])C(=O)O.O=C([O-])C(=O)[O-].[K+].[U]`, the T/C was 98 % of control (dose: 0.5 mg/kg/injection, schedule: Q01DX009 (ip), vehicle: Klucel (hydroxypropylcellulose) (HPC)); 97 % of control (dose: 1.0 mg/kg/injection, schedule: Q01DX009 (ip), vehicle: Klucel (hydroxypropylcellulose) (HPC)); 100 % of control (dose: 1.0 mg/kg/injection, schedule: Q01DX009 (ip), vehicle: saline); 98 % of control (dose: 2.0 mg/kg/injection, schedule: Q01DX009 (ip), vehicle: saline).
With `CC(Br)C(=O)NC(CC(N)=O)C(=O)O` (configuration not stated), the T/C runs as follows: under setting [3], 91 % of control; under setting [1], 104 % of control; under setting [2], 93 % of control.
For `CCCCCCCCCCCCCCCC[N+]1(CC)CCCC1`, the T/C was 102 % of control (dose: 0.1 mg/kg/injection, schedule: Q01DX009 (ip), vehicle: Klucel (hydroxypropylcellulose) (HPC)) and 95 % of control (dose: 0.2 mg/kg/injection, schedule: Q01DX009 (ip), vehicle: Klucel (hydroxypropylcellulose) (HPC)).
